# Laboratory results reported in patent US20080003288A1, “Responsive microgel and methods related thereto” (Supratek Pharma Inc., priority 2002, published 2008).
# Where two headings read alike, the source gives them in different places.
# Key:
# [1] = Dynamic dialysis without microgels: permeability of the dialysis membrane to free solutes; format: physicochemical; conditions: through dialysis membrane, no microgel, from mean K and membrane thickness (eqn 3)
# From the text: Drug release from microgels loaded with either DCTAF-labeled PLURONIC® or doxorubicin was studied using the dynamic dialysis technique of Gupta, P. K., et al., J. Pharm. […] A Teflon-made, thermostatted dynamic dialyzer consisted of two chambers, separated by a dialysis membrane (cellulose ester, working area A=0.35 cm^2, molecular weight cut-off 100 kDa, Spectrum Laboratories). […] Concentration of the drug in the receiver solution was monitored online by passing through a thermostatted quartz cuvette (path length 1.0 cm). […] The dialyzer was maintained at 37° C. by submersion in a water bath. The flow rate through the receiver chamber was maintained at 1.5 mL/min. […] The total volume of the receiver solution (Vr), including the chamber, cuvette, and 0.093″ tubing, was 98 mL in all experiments.
# Permeability of the dialysis membrane was determined by loading a certain amount (qf^0) of either doxorubicin or PLURONIC® solution into the feed chamber and measuring the kinetics of release. […] The membrane thickness (δ) was measured microscopically in the receiver solution upon completion of the dialysis experiment and was typically in the order of 100 μm. […]
# In the control experiments, we measured permeability of the dialysis membrane for doxorubicin and PLURONIC® L61 without loading into microgels. […]
# [2] = Equilibrium loading (uptake) of drugs into microgels; format: physicochemical; conditions: pH 7.0, PLURONIC-PAA microgels XL = 1 mol %
# Procedure: A microgel was suspended in Tris buffer (5 mM, pH 7.0) and 50 μL of the suspension (2 mg gel/mL buffer) was equilibrated with 3.0 mM stock solution of a drug (450 μL) for 16 h while shaking 44, 45. Shaking was performed using a KS 10 orbital shaker (BEA-Enprotech Corp., Hyde Park, Mass.) in an environmental chamber at 37° C. […] Deionized water was used as a mobile phase (flow rate, 1 mL/min, injection volume, 25 μL), and detection was carried out at 365 nm 47. […] The U values were measured in triplicate for each drug and for each temperature, pH, and gel, respectively. […] This ensured equilibrium U values. […] The beads were separated into several fractions. […] Then the beads were recovered from the suspension by using a magnet. […] The control fraction of loaded beads was subjected to the extraction without equilibration with the microgel suspension.
# [3] = Transepithelial transport of doxorubicin across Caco-2 monolayers; format: in vitro ADME; conditions: human
# Procedure: (§1) The drug-containing samples for the transport experiments were prepared as follows. […] The suspension was centrifuged at 8000×g for 0.5 h and the supernatant was removed. The pellet was weighed and resuspended in fresh portion of serum-free DMEM of a known weight. Known amount of doxorubicin and Pluronic were dissolved in the suspension, which was allowed to equilibrate at 37° C. overnight, then snap-frozen and lyophilized. The powders were kept at −70° C. Before the transport experiments, a known amount of powder was reconstituted in DMEM and was allowed to equilibrate at 37° C. overnight.
# (§2) Cells were seeded at a density of (2-4)×10^4 cells/cm^2 on top of Transwell™ polycarbonate filters (pore size, 0.4 μm; diameter, 24.5 mm; growth area, 4.71 cm^2) from Costar (Cambridge, Mass.). The cells were grown for 3 weeks prior to the transport experiments and trans-epithelial electrical resistance (TEER) was measured using a Millicell-ERS device (Millipore, Bedford, Mass.) equipped with rod-shaped electrodes. The TEER data were corrected for background readings contributed by the blank filter and culture medium. […] Then the monolayers were rinsed twice by serum-free DMEM and the transport experiment commenced by replacing the medium at either the basolateral or the apical side of the monolayer with 2.5 mL of the serum-free DMEM containing doxorubicin (with or without microgels, see Table 3). Simultaneously, the medium on the other side was refreshed. The monolayers were incubated at 37° C. in 10% CO2 atmosphere. Samples of 200 μL were taken from each side intermittently, and the drug concentration was measured in the samples withdrawn from the side opposite to the side of the drug application. The volumes withdrawn were immediately replaced with equal volumes of serum-free DMEM pre-equilibrated at 37° C. Each experiment was repeated four times. […] Additionally, the concentration of doxorubicin in the medium was measured by HPLC using a Capcell Pak UG C18 (100×4.6 mm I.D., particle size 5 μm) column and a Universal Guard Cartridge System (Phenomenex, Torrance, Calif.). […] Water/acetonitrile (70/30, pH 4) was used as the mobile phase (flow rate, 1 mL/min, injection volume, 5 μL), and detection was carried out using an Argon Ion laser (488 nm, 10 mW). […] Temperature was controlled to ±0.05 C using a circulating water bath. The platinum Wilhelmy plate was washed with acetone, rinsed in Milli-Q water, and flamed until red-hot before each measurement.
# (§3) The apparent permeability of the Caco-2 monolayer (Pa, cm/s) was calculated from the linearized time course of the doxorubicin fractional transport (dI1t/dt in the fluorescence assay and dCt/dt in the HPLC assay) normalized to the effective surface area of the filter (A=4.71 cm^2) and the initial fluorescence emission intensity reading (Io) or initial doxorubicin concentration (Co) in the donor (basolateral or apical) compartment of volume V=2.5 cm^3: [formula]
# [4] = test system: Caco-2 monolayers; assay: as above; format: in vitro ADME; conditions: doxorubicin 3 μM in donor, no further additive in DMEM
# Procedure: as §1, §2, §3
# [5] = cited from earlier work; for Charge: valency of cationic weak base, 0 = uncharged
Compound,effective diffusion coefficient (D) [1],Uptake ± SD ([2]; 20° C.),Uptake ± SD ([2]; 37° C.),"Papp A→B at 3 μM ([3]; Caco-2, doxorubicin 3 μM in donor, no further additive in DMEM, read-out: Pa, a→b, HPLC assay)","Papp B→A at 3 µM ([3]; Caco-2, doxorubicin 3 μM in donor, no further additive in DMEM, read-out: apparent permeability, b→a, HPLC assay)","Papp B→A at 3 µM ([3]; Caco-2, doxorubicin 3 μM in donor, no further additive in DMEM, read-out: apparent permeability, b→a, fluorescence assay)","efflux ratio ([3]; Caco-2, no additives, read-out: active efflux exceeding the passive influx)","Pa, a→b, fluorescence assay [4]",Log P (n-octanol-to-water partition coefficient) [5],Charge [5]
COc1cccc2c1C(=O)c1c(O)c3c(c(O)c1C2=O)C[C@@](O)(C(=O)CO)C[C@@H]3O[C@H]1C[C@H](N)[C@H](O)[C@H](C)O1 [Doxorubicin],2.4×10^−5 cm^2/s,2.97 ± 0.33 (20° C.) mmol/g,2.26 ± 0.37 (37° C.) mmol/g,0.579 ×10⁻⁶ cm/s,2.75 ×10⁻⁶ cm/s,2.81 ×10⁻⁶ cm/s,4.6,(6.07±0.04)×10^−7 cm/s,1.85,1
CO[C@@]12[C@H](COC(N)=O)C3=C(C(=O)C(C)=C(N)C3=O)N1C[C@@H]1N[C@@H]12 [Mitomycin C],–,–,5.31 ± 1.86 (37° C.) mmol/g,–,–,–,–,–,–,3
O=C1c2c(O)ccc(O)c2C(=O)c2c(NCCNCCO)ccc(NCCNCCO)c21 [Mitoxantrone],–,–,3.70 ± 0.56 (37° C.) mmol/g,–,–,–,–,–,–,–
